Measured values as given in patent US10968198B2, “Biaryltriazole inhibitors of macrophage migration inhibitory factor” (YALE UNIVERSITY, priority 2015, dated 2021).

Biological target: human MIF (Homo sapiens (Human), UniProt P14174)
Assay: X-ray crystallography of complexes with human MIF
Details: co-crystal or soak
Experimental: The solution was centrifuged at 13,000×g to remove precipitated compound and used to set up hanging-drop crystallization experiments. A reservoir of 2.0 M ammonium sulfate, 0.1 M Tris pH 7, and 3% isopropanol was added to the protein solution in a 1:1 ratio and stored at 20° C. Diffraction-quality crystals with a rod morphology grew within two weeks. The crystals were cryo-protected in 25% glycerol, 2.0M ammonium sulfate, 0.1 M Tris pH 7, and 3% isopropanol. Data was collected at the Advanced Photon Source remotely on the NE-CAT 24-ID-E beam line. […] Crystals were obtained by the hanging-drop method at 20° C. A reservoir of 2.2 M ammonium sulfate, 0.1 M Tris pH 7, and 3% isopropanol mixed in a 1:1 ratio with rhMIF (16 mg/mL) was used to produce 2 μL drops. […] Crystals were cryo-protected with 25% glycerol, 2.2 M ammonium sulfate, 0.1 M Tris pH 7, and 3% isopropanol. […] HKL2000 was used to index, integrate, and scale the MIF-3a data set in the […] space group and the MIF-3b in the P212121 space group. Phases were obtained by molecular replacement with PDB file 3U18 using the CCP4 and PHASER programs. Model building was performed in COOT with iterative restrained refinement with REFMAC.

| SMILES | binding site in X-ray crystal structure of complex with human MIF |
| --- | --- |
| Oc1ccc(-n2cc(-c3ccc4ccccc4n3)nn2)cc1 [Example 3a, 4-(4-(quinolin-2-yl)-1H-1,2,3-triazol-1-yl)phenol] | binding of these inhibitors in the tautomerase active site |
| COCCOc1ccc2nc(-c3cn(-c4ccc(O)cc4)nn3)ccc2c1 [Example 3b, 4-(4-(6-(2-methoxyethoxy)quinolin-2-yl)-1H-1,2,3-triazol-1-yl)phenol] | binding of these inhibitors in the tautomerase active site |
| Oc1ccc(-n2cc(-c3ccc4cc(OCCOCCN5CCOCC5)ccc4n3)nn2)cc1 [Example 3v, 4-(4-(6-(2-(2-morpholinoethoxy)ethoxy)quinolin-2-yl)-1H-1,2,3-triazol-1-yl)phenol] | binding of these inhibitors in the tautomerase active site |
